Assay results published in the NIST ThermoML archive (doi:10.1021/acs.jced.8b00132).
Where “and” joins values, the source holds several entries; their conditions need not be identical. Equal entries are not always repeated. Numbers after ± are expanded uncertainties.

Details: Gas

SMILES: O=C(C(F)(F)C(F)(F)F)C(F)(C(F)(F)F)C(F)(F)F [dodecafluoro-2-methylpentan-3-one]
- thermal conductivity (473.39 K, 1887 kPa, transient hot wire): 0.02688 ± 0.0016 W/m/K
- thermal conductivity (473.39 K, 22521 kPa, transient hot wire): 0.05152 ± 0.0013 W/m/K
- thermal conductivity (473.39 K, 49215 kPa, transient hot wire): 0.06271 ± 0.0016 W/m/K
- thermal conductivity (473.39 K, 49255 kPa, transient hot wire): 0.06285 ± 0.0016 W/m/K
- thermal conductivity (473.4 K, 22522 kPa, transient hot wire): 0.05154 ± 0.0013 W/m/K
- thermal conductivity (473.4 K, 33946 kPa, transient hot wire): 0.05711 ± 0.0014 W/m/K
- thermal conductivity (473.42 K, 7819 kPa, transient hot wire): 0.04151 ± 0.00099 W/m/K
- thermal conductivity (473.44 K, 47 kPa, hot wire): 0.02441 ± 0.0011 W/m/K
- thermal conductivity (473.44 K, 201 kPa, hot wire): 0.0244 ± 0.0011 W/m/K
- thermal conductivity (473.44 K, 7822 kPa, transient hot wire): 0.0416 ± 0.00099 W/m/K
- thermal conductivity (473.44 K, 49246 kPa, transient hot wire): 0.06304 ± 0.0016 W/m/K
- thermal conductivity (473.45 K, 47 kPa, hot wire): 0.02432 ± 0.0011 W/m/K
- thermal conductivity (473.45 K, 606 kPa, hot wire): 0.02611 ± 0.0012 W/m/K
- thermal conductivity (473.45 K, 49207 kPa, transient hot wire): 0.06277 ± 0.0016 W/m/K
- thermal conductivity (473.45 K, 49209 kPa, transient hot wire): 0.06279 ± 0.0016 W/m/K
- thermal conductivity (473.45 K, 49249 kPa, transient hot wire): 0.06286 ± 0.0016 W/m/K
- thermal conductivity (473.46 K, 202 kPa, hot wire): 0.02416 ± 0.0011 W/m/K
- thermal conductivity (473.46 K, 606 kPa, hot wire): 0.02602 ± 0.0012 W/m/K
- thermal conductivity (473.46 K, 1913 kPa, transient hot wire): 0.0269 ± 0.0016 W/m/K
- thermal conductivity (473.46 K, 10825 kPa, transient hot wire): 0.04418 ± 0.001 W/m/K
- thermal conductivity (473.46 K, 10827 kPa, transient hot wire): 0.04414 ± 0.001 W/m/K
- thermal conductivity (473.47 K, 33946 kPa, transient hot wire): 0.05693 ± 0.0014 W/m/K
- thermal conductivity (473.48 K, 419 kPa, hot wire): 0.02531 ± 0.0012 W/m/K
- thermal conductivity (473.48 K, 1914 kPa, transient hot wire): 0.027 ± 0.0017 W/m/K
- thermal conductivity (473.48 K, 22521 kPa, transient hot wire): 0.05152 ± 0.0013 W/m/K
- thermal conductivity (473.48 K, 33946 kPa, transient hot wire): 0.05688 ± 0.0014 W/m/K
- thermal conductivity (473.49 K, 418 kPa, hot wire): 0.02526 ± 0.0012 W/m/K
- thermal conductivity (473.49 K, 1887 kPa, transient hot wire): 0.027 ± 0.0017 W/m/K
- thermal conductivity (473.49 K, 15492 kPa, transient hot wire): 0.04746 ± 0.0011 W/m/K
- thermal conductivity (473.49 K, 49134 kPa, transient hot wire): 0.06279 ± 0.0016 W/m/K
- thermal conductivity (473.5 K, 1887 kPa, transient hot wire): 0.02709 ± 0.0017 W/m/K
- thermal conductivity (473.51 K, 1475 kPa, transient hot wire): 0.02577 ± 0.00085 W/m/K
- thermal conductivity (473.51 K, 49242 kPa, transient hot wire): 0.0628 ± 0.0016 W/m/K
- thermal conductivity (473.52 K, 1475 kPa, transient hot wire): 0.02566 ± 0.00084 W/m/K
- thermal conductivity (473.52 K, 7821 kPa, transient hot wire): 0.04156 ± 0.00099 W/m/K
- thermal conductivity (473.52 K, 7822 kPa, transient hot wire): 0.04146 ± 0.00099 W/m/K
- thermal conductivity (473.53 K, 10824 kPa, transient hot wire): 0.04374 ± 0.001 W/m/K
- thermal conductivity (473.53 K, 49248 kPa, transient hot wire): 0.06293 ± 0.0016 W/m/K
- thermal conductivity (473.54 K, 46 kPa, hot wire): 0.0245 ± 0.0011 W/m/K
- thermal conductivity (473.54 K, 201 kPa, hot wire): 0.02457 ± 0.0011 W/m/K
- thermal conductivity (473.55 K, 201 kPa, hot wire): 0.02434 ± 0.0011 W/m/K
- thermal conductivity (473.55 K, 839 kPa, transient hot wire): 0.02508 ± 0.0015 W/m/K
- thermal conductivity (473.55 K, 10823 kPa, transient hot wire): 0.0442 ± 0.001 W/m/K
- thermal conductivity (473.55 K, 22519 kPa, transient hot wire): 0.05152 ± 0.0013 W/m/K
- thermal conductivity (473.55 K, 33944 kPa, transient hot wire): 0.05699 ± 0.0014 W/m/K
- thermal conductivity (473.55 K, 33949 kPa, transient hot wire): 0.05683 ± 0.0014 W/m/K
- thermal conductivity (473.56 K, 46 kPa, hot wire): 0.02434 ± 0.0011 W/m/K
- thermal conductivity (473.56 K, 22522 kPa, transient hot wire): 0.05162 ± 0.0013 W/m/K
- thermal conductivity (473.57 K, 840 kPa, transient hot wire): 0.02498 ± 0.0015 W/m/K
- thermal conductivity (473.58 K, 1912 kPa, transient hot wire): 0.02703 ± 0.0017 W/m/K and 0.02697 ± 0.0017 W/m/K
- thermal conductivity (473.58 K, 15493 kPa, transient hot wire): 0.04744 ± 0.0011 W/m/K
- thermal conductivity (473.6 K, 604 kPa, transient hot wire): 0.02513 ± 0.0015 W/m/K
- thermal conductivity (473.6 K, 15489 kPa, transient hot wire): 0.04749 ± 0.0011 W/m/K
- thermal conductivity (473.61 K, 605 kPa, transient hot wire): 0.02525 ± 0.0015 W/m/K
- thermal conductivity (473.62 K, 33950 kPa, transient hot wire): 0.05685 ± 0.0014 W/m/K
- thermal conductivity (473.63 K, 10824 kPa, transient hot wire): 0.04429 ± 0.0011 W/m/K
- thermal conductivity (473.64 K, 10823 kPa, transient hot wire): 0.04414 ± 0.001 W/m/K
- thermal conductivity (473.65 K, 1476 kPa, transient hot wire): 0.02571 ± 0.00085 W/m/K
- thermal conductivity (473.66 K, 1476 kPa, transient hot wire): 0.02567 ± 0.00084 W/m/K
- thermal conductivity (473.67 K, 429 kPa, transient hot wire): 0.02546 ± 0.0016 W/m/K
- thermal conductivity (473.67 K, 15488 kPa, transient hot wire): 0.04746 ± 0.0011 W/m/K
- thermal conductivity (473.67 K, 22520 kPa, transient hot wire): 0.05153 ± 0.0013 W/m/K
- thermal conductivity (473.68 K, 430 kPa, transient hot wire): 0.02555 ± 0.0016 W/m/K
- thermal conductivity (473.71 K, 842 kPa, transient hot wire): 0.02515 ± 0.0015 W/m/K
- thermal conductivity (473.71 K, 1912 kPa, transient hot wire): 0.02721 ± 0.0017 W/m/K
- thermal conductivity (473.71 K, 1913 kPa, transient hot wire): 0.02727 ± 0.0017 W/m/K
- thermal conductivity (473.71 K, 10824 kPa, transient hot wire): 0.04392 ± 0.001 W/m/K
- thermal conductivity (473.72 K, 841 kPa, transient hot wire): 0.02507 ± 0.0015 W/m/K
- thermal conductivity (473.74 K, 10822 kPa, transient hot wire): 0.04424 ± 0.001 W/m/K
- thermal conductivity (473.75 K, 22523 kPa, transient hot wire): 0.05151 ± 0.0013 W/m/K and 0.05152 ± 0.0013 W/m/K
- thermal conductivity (473.77 K, 607 kPa, transient hot wire): 0.02516 ± 0.0015 W/m/K and 0.02531 ± 0.0016 W/m/K
- thermal conductivity (473.77 K, 15488 kPa, transient hot wire): 0.04755 ± 0.0011 W/m/K
- thermal conductivity (473.78 K, 1476 kPa, transient hot wire): 0.02572 ± 0.00085 W/m/K
- thermal conductivity (473.78 K, 15486 kPa, transient hot wire): 0.04744 ± 0.0011 W/m/K
- thermal conductivity (473.79 K, 1476 kPa, transient hot wire): 0.02574 ± 0.00085 W/m/K
- thermal conductivity (473.81 K, 1914 kPa, transient hot wire): 0.02747 ± 0.0017 W/m/K
- thermal conductivity (473.81 K, 10823 kPa, transient hot wire): 0.0442 ± 0.001 W/m/K and 0.04427 ± 0.0011 W/m/K
- thermal conductivity (473.82 K, 427 kPa, transient hot wire): 0.02562 ± 0.0016 W/m/K
- thermal conductivity (473.82 K, 428 kPa, transient hot wire): 0.02569 ± 0.0016 W/m/K
- thermal conductivity (473.82 K, 1914 kPa, transient hot wire): 0.0274 ± 0.0017 W/m/K
- thermal conductivity (473.85 K, 15487 kPa, transient hot wire): 0.04761 ± 0.0011 W/m/K
- thermal conductivity (473.87 K, 15485 kPa, transient hot wire): 0.04754 ± 0.0011 W/m/K
- thermal conductivity (473.88 K, 841 kPa, transient hot wire): 0.02504 ± 0.0015 W/m/K
- thermal conductivity (473.89 K, 841 kPa, transient hot wire): 0.02504 ± 0.0015 W/m/K
